How the values were obtained:
HEK-293 cells [1] = assay: Apoptosis assay: X-Gal staining of β-galactosidase co-transfected cells, apoptotic morphology; format: cell-based, human; conditions: for effect of oligonucleotide on prostacyclin-mediated apoptosis: HEK-293, HVJ-liposome method; for induction/enhancement of apoptosis by treatment with the agent: various concentrations (1, 10, 100 μM) in serum-free medium, cells expressing β-galactosidase and PGISwt or PGISC441A
Experimental: Cells were transfected with 1.0 μg of β-galactosidase expression vector using LipofectAMINE. After a fixed time, the cells were stained with X-Gal to evaluate the cells for apoptotic morphology. Apoptosis was monitored with ApoAlert caspase assay kit using Ac-DEVD-AFC substrate (Clontech). The activity was determined by using lysate pretreated with. Ac-DEVD-CHO as a control according to the supplier's instructions. The caspase activity is defined as a ratio between the caspase activity of a sample and that of lysate prepared from HEK-293 cells mock-transfected with a control plasmid.
To strictly ascertain the relationship between the expression of PGIS and apoptosis, HEK-293 cells were co-transfected with two types of expression constructs for human PGISwt and β-galactosidase. Because normal HEK-293 cells have flat morphology, it is easy to assess the cells for apoptotic changes characterized by membrane vesicle formation and cell body shrinkage. After incubation for a predetermined time following transfection, cells were stained with X-gal for β-galactosidase activity to identify cells containing the transgenes and then assessed for the apoptotic morphology. […] In HEK-293 cells, apoptosis was induced only by the expression of PGISwt without the presence of co-expression of COX-2 (FIGS. 4a and 5). The co-expression of COX-2 with PGISwt increased the number of apoptotic cells (16%). […] The level of 6-keto-PGF1α released into culture medium was correlated with the frequency of apoptosis (FIG. 6). […] Neither co-expression of PGISC441A and COX-2 nor further addition of arachidonic acid gave influence on the production 6-keto-PGF1α and morphological changes (FIGS. 5 and 6). These findings clearly indicate that prostacyclin produced by active PGIS participates in the process of apoptosis.

HEK-293 cells [2] = assay: as above; format: cell-based, human; conditions: HEK-293, HVJ-liposome method
PPAR = assay: PPREx3-luciferase assay in HEK-293 cells; format: cell-based, human
Source text: The sense oligonucleotide […] CTC (SEQ ID NO: 7) and antisense oligonucleotide […] A (which contains three copies of PPRE; SEQ ID NO: 8) were synthesized and annealed together; the resulting double-stranded DNA was subcloned into PGL3-promoter vector (Promega) at the MluI-XhoI site. PPREx3-luciferase reporter vector and β-galactosidase expression vector were co-transfected into HEK-293 cells using LipofectAMINE. The activity of β-galactosidase was normalized with absorbance at 405 nm.

PPAR-δ = assay: Immunoblot of PPAR-δ after oligonucleotide transfection (HVJ-liposome method); format: cell-based, human; conditions: after 48 hours
Source text: A lysate prepared from cells transfected with the PPAR-δ antisense oligonucleotide (AS) was immuno-blotted using an anti-PPAR-δ monoclonal antibody; a sense oligonucleotide (S) was used as a control.
dS, which corresponds to human PPAR-δ cDNA sense sequence: 5′-CTCGGTGACTTATCCTGTG-3′ (SEQ ID NO: 3); dAS, which corresponds to human PPAR-δ cDNA antisense sequence: 5′-TCCTCTTTCTCCTCCTCTT-3′ (SEQ ID NO: 4); aS, which corresponds to human PPAR-α cDNA sense sequence: 5′-CTCGGTGACTTATCCTGTG-3′ (SEQ ID NO: 5); and aAS, which corresponds to human PPAR-α cDNA antisense sequence: 5′-CACAGGATAAGTCACCGAG-3′ (SEQ ID NO: 6). These oligonucleotides were transfected into cells by HVJ-liposome method. Each oligonucleotide (22 μg) was combined with a nuclear protein and high mobility group (HMG)-1. HVJ-liposome was prepared by combining dry lipid (phosphatidyl serine/phosphatidyl choline/cholesterol (1:4.8:2 w/w/w)) with ultraviolet light-inactivated HVJ virus (viruses). After incubation and centrifugation with a sucrose-density gradient, the top layer was collected for transfection. 48 hours after transfection, cells in which the expression of endogenous PPAR-δ had been suppressed were used in PPREx3-luciferase assay and apoptosis assay.

HEK-293 cells [3] = assay: Distribution of 3H-Iloprost in membrane, cytosol and nuclear fractions; format: in vitro ADME, human; conditions: 100 μM 3H-Iloprost, 24 hours
Experimental: FIG. 14 is a diagram showing the influence of the expression of PGIS on PPAR activation. The permeability of Iloprost was evaluated by using ^3H-Iloprost. HEK-293 cells were cultured in DMEM containing 100 μM ^3H-Iloprost for 24 hours. Cell membrane, cytosol, and nuclear fractions were prepared from the cells, and then the distribution of ^3H-Iloprost was determined using the fractions. The results were obtained from three sets of experiments (n=3) and are presented as mean±S.D.

recombinant PPAR = conditions: added to medium; cited from earlier work
cAMP = assay: Intracellular level of cAMP accumulated in transfected cells; format: cell-based, human; conditions: Iloprost at various concentrations, serum-free medium
Experimental: FIG. 8 illustrates a diagram showing the intracellular level of cAMP accumulated in cells in serum-free medium containing Iloprost at the concentrations indicated (0, 1, 10, or 100 μM). The cells were transfected with expression plasmids for PGISwt, PGISC441A, or a mock control expression plasmid and β-galactosidase expression plasmid. After 17 hours, the medium was changed with serum-free medium containing Iloprost at various concentrations (0, 1, 10, or 100 μm). All results were obtained from three sets of experiments (n=3) and are presented as mean±S.D.

HEK-293 cells [4] = assay: Double-staining with anti-PGIS antibody and Hoechst 33258 (chromatin condensation); format: cell-based, human; conditions: 100 μM; HEK-293 cells expressing PGIS; data not shown
Experimental: Cultured monolayer cells of human fetal kidney-derived HEK-293 cell line (ATCC CRL-1573) were harvested and plated in Dulbecco's modified Eagle's medium containing 10% bovine fetal serum (FBS), 100 U/ml penicillin, and […] streptomycin (3×10^5 cells/60-mm dish). 24 hours after incubation, the cells were transfected with 3 μg of any one of PGISwt (described below), PGISC441A (described below), or control vector pCMV7 (generous gift from Texas University; Andersson, S. et al., J. Biol. Chem., 264, 8222-8229 (1989): this can be replaced with pcDNA3 (Invitrogen; catalogue number: #A-150228)) and […] of pvA (plasmid encoding adenovirus-associated RNA1) using LipofectAMINE (Gibco-BRL). 5 hours after transfection, the cells were rinsed twice with phosphate-buffered physiological saline (PBS), and the fresh medium was added thereto. After gene transfer, the cells were cultured for 48 to 60 hours in total. Then, the cells were rinsed with PBS, and fixed with 3.7% formaldehyde for 10 minutes. The cells fixed were washed three times with PBS, and then incubated with the anti-PGIS antibody P4 for 2 hours. After being washed three times with PBS containing 2% FBS, the cells were incubated with anti-rabbit Ig-Texas Red at 37° C. for 1 hour and stained with […] Hoechst 33258 at room temperature for 15 minutes.

Q: With “5′-CACAGGATAAGTCACCGAG-3′ (listed as DNA, chemistry not given here) [antisense oligonucleotide PPAR-α]” as the compound, how does the “effect of oligonucleotide on prostacyclin-mediated apoptosis” value (HEK-293 cells [1]) read?
A: apoptosis was not inhibited

Q: And the “changes in the oligonucleotide-treated cells (viability, morphology)” value (HEK-293 cells [2])?
A: cell viability declined

Q: Which “changes in the oligonucleotide-treated cells (viability, morphology)” value (HEK-293 cells [2]) does the source give for “5′-CTCGGTGACTTATCCTGTG-3′ (listed as DNA, chemistry not given here) [PPAR-α sense oligonucleotide]” here?
A: no marked changes

Q: Which results are given for “5′-TCCTCTTTCTCCTCCTCTT-3′ (listed as DNA, chemistry not given here) [PPAR-δ antisense oligonucleotide]”?
A: effect of oligonucleotide on prostacyclin-mediated apoptosis (HEK-293 cells [1]): significantly blocked; activity of luciferase co-expressed with PGISwt in oligonucleotide-treated cells (PPAR; HEK-293): significantly decreased; production of PPAR-δ protein (PPAR-δ): suppressed; changes in the oligonucleotide-treated cells (viability, morphology) (HEK-293 cells [2]): normal morphology; number of cells after oligonucleotide treatment (HEK-293 cells [2]): increased

Q: Which “effect on prostacyclin-mediated apoptosis” value (HEK-293 cells [1]; H-7 1, 10, 100 μM in serum-free medium, FIG. 10) does the source give for CC1CNCCN1S(=O)(=O)c1cccc2cnccc12 (centres unmarked) [H-7] here?
A: did not block but enhanced

Q: Which “Iloprost taken up by HEK-293 cells” value (HEK-293 cells [3]) does the source give for CC#CCC(C)[C@H](O)/C=C/[C@@H]1[C@H]2C/C(=C/CCCC(=O)O)C[C@H]2C[C@H]1O (some centres unmarked) [Iloprost] here?
A: very little

Q: And the “share of the Iloprost incorporated that is localized on cell membrane” value (HEK-293 cells [3])?
A: > 99%

Q: What about the “induction/enhancement of apoptosis by treatment with the agent” value (HEK-293 cells [1]) of the same compound?
A: apoptosis was not induced

Q: And the “activity of PPRE-luciferase on treatment” value (PPAR; 1 to 100 μM added to medium, endogenous PPAR)?
A: could not increase

Q: What about the “activation of recombinant PPAR overexpressed in CV-1 cells” value (recombinant PPAR) of the same compound?
A: results in activation

Q: What about the “intracellular cAMP” value (cAMP) of the same compound?
A: accumulated

Q: For CCCCC[C@H](O)/C=C/[C@@H]1[C@@H](C/C=C\CCCC(=O)O)[C@H]2CO[C@@H]1C2 [U46619], which “Hoechst 33258-positive cells” value (HEK-293 cells [4]) is on record?
A: 32%

Q: With CCCCC/C=C\C/C=C\C/C=C\C/C=C\CCCC(=O)O [arachidonic acid] as the compound, how does the “apoptosis on addition to the medium” value (HEK-293 cells [1]; HEK-293 cells expressing both PGISwt and COX-2) read?
A: induction of apoptosis in almost all the cells

Q: With CC(=O)Oc1ccccc1C(=O)O [aspirin] as the compound, how does the “Hoechst 33258-positive cells” value (HEK-293 cells [4]) read?
A: 48%

Q: Which “induction/enhancement of apoptosis by treatment with the agent” value (HEK-293 cells [1]) does the source give for CCCC(=O)Nc1ncnc2c1ncn2[C@@H]1O[C@@H]2COP(=O)(O)O[C@H]2[C@H]1OC(=O)CCC [dbcAMP, dibutyryl-cAMP] here?
A: apoptosis was not enhanced

Q: For CCCCC[C@H](O)/C=C/[C@@H]1[C@H]2C/C(=C/CCCC(=O)O)O[C@H]2C[C@H]1O [prostacyclin], which “activation of recombinant PPAR overexpressed in CV-1 cells” value (recombinant PPAR) is on record?
A: could not activate
